According to the NIST ThermoML archive (doi:10.1021/je300853z):
Numbers after ± are expanded uncertainties.

Key:
[1] = molar heat capacity at constant pressure; xn = mol fraction of the nth substance listed; conditions: 101 kPa, Liquid, Small sample (50 mg) DSC
[2] = excess molar enthalpy (molar enthalpy of mixing); xn = mol fraction of the nth substance listed; conditions: 298.15 K, 101 kPa, Liquid, Calvet calorimetry

CCCCCCCC[n+]1ccc2ccccc2c1.N#C[S-] [2-octylisoquinolinium thiocyanate] + O
molar heat capacity at constant pressure ([1]; 308.15 K, x1 = 0.8935): 484 ± 10 J/K/mol
molar heat capacity at constant pressure ([1]; 313.15 K, x1 = 0.3977): 260 ± 5 J/K/mol
molar heat capacity at constant pressure ([1]; 313.15 K, x1 = 0.5237): 316 ± 6 J/K/mol
molar heat capacity at constant pressure ([1]; 313.15 K, x1 = 0.5945): 351 ± 7 J/K/mol
molar heat capacity at constant pressure ([1]; 313.15 K, x1 = 0.7214): 402 ± 8 J/K/mol
molar heat capacity at constant pressure ([1]; 313.15 K, x1 = 0.8097): 441 ± 9 J/K/mol
molar heat capacity at constant pressure ([1]; 313.15 K, x1 = 0.8935): 487 ± 10 J/K/mol
molar heat capacity at constant pressure ([1]; 318.15 K, x1 = 0.3977): 261 ± 5 J/K/mol
molar heat capacity at constant pressure ([1]; 318.15 K, x1 = 0.5237): 318 ± 6 J/K/mol
molar heat capacity at constant pressure ([1]; 318.15 K, x1 = 0.5945): 353 ± 7 J/K/mol
molar heat capacity at constant pressure ([1]; 318.15 K, x1 = 0.7214): 404 ± 8 J/K/mol
molar heat capacity at constant pressure ([1]; 318.15 K, x1 = 0.8097): 441 ± 9 J/K/mol
molar heat capacity at constant pressure ([1]; 318.15 K, x1 = 0.8935): 490 ± 10 J/K/mol
molar heat capacity at constant pressure ([1]; 323.15 K, x1 = 0.3977): 261 ± 5 J/K/mol
molar heat capacity at constant pressure ([1]; 323.15 K, x1 = 0.5237): 319 ± 6 J/K/mol
molar heat capacity at constant pressure ([1]; 323.15 K, x1 = 0.5945): 355 ± 7 J/K/mol
molar heat capacity at constant pressure ([1]; 323.15 K, x1 = 0.7214): 405 ± 8 J/K/mol
molar heat capacity at constant pressure ([1]; 323.15 K, x1 = 0.8097): 442 ± 9 J/K/mol
molar heat capacity at constant pressure ([1]; 323.15 K, x1 = 0.8935): 492 ± 10 J/K/mol
molar heat capacity at constant pressure ([1]; 328.15 K, x1 = 0.3977): 262 ± 5 J/K/mol
molar heat capacity at constant pressure ([1]; 328.15 K, x1 = 0.5237): 320 ± 6 J/K/mol
molar heat capacity at constant pressure ([1]; 328.15 K, x1 = 0.5945): 357 ± 7 J/K/mol
molar heat capacity at constant pressure ([1]; 328.15 K, x1 = 0.7214): 406 ± 8 J/K/mol
molar heat capacity at constant pressure ([1]; 328.15 K, x1 = 0.8097): 443 ± 9 J/K/mol
molar heat capacity at constant pressure ([1]; 328.15 K, x1 = 0.8935): 495 ± 10 J/K/mol
molar heat capacity at constant pressure ([1]; 333.15 K, x1 = 0.3977): 263 ± 5 J/K/mol
molar heat capacity at constant pressure ([1]; 333.15 K, x1 = 0.5237): 321 ± 6 J/K/mol
molar heat capacity at constant pressure ([1]; 333.15 K, x1 = 0.5945): 358 ± 7 J/K/mol
molar heat capacity at constant pressure ([1]; 333.15 K, x1 = 0.7214): 408 ± 8 J/K/mol
molar heat capacity at constant pressure ([1]; 333.15 K, x1 = 0.8097): 443 ± 9 J/K/mol
molar heat capacity at constant pressure ([1]; 333.15 K, x1 = 0.8935): 497 ± 10 J/K/mol
molar heat capacity at constant pressure ([1]; 338.15 K, x1 = 0.3977): 263 ± 5 J/K/mol
molar heat capacity at constant pressure ([1]; 338.15 K, x1 = 0.5237): 322 ± 6 J/K/mol
molar heat capacity at constant pressure ([1]; 338.15 K, x1 = 0.5945): 360 ± 7 J/K/mol
molar heat capacity at constant pressure ([1]; 338.15 K, x1 = 0.7214): 408 ± 8 J/K/mol
molar heat capacity at constant pressure ([1]; 338.15 K, x1 = 0.8097): 442 ± 9 J/K/mol
molar heat capacity at constant pressure ([1]; 338.15 K, x1 = 0.8935): 500 ± 10 J/K/mol
excess molar enthalpy ([2]; x1 = 0.2433): 0.0308 ± 0.00043 kcal/mol
excess molar enthalpy ([2]; x1 = 0.258): 0.0292 ± 0.000406 kcal/mol
excess molar enthalpy ([2]; x1 = 0.2745): 0.0249 ± 0.000382 kcal/mol
excess molar enthalpy ([2]; x1 = 0.2933): 0.0158 ± 0.000311 kcal/mol
excess molar enthalpy ([2]; x1 = 0.3149): 0.00142 ± 0.000201 kcal/mol
